Earlier results on 1 compound are cited in US7011849B2, “Second release phase formulation” (Beecham Pharmaceuticals (Pte) Limited, priority 2000, dated 2006).

For this data set the following is noted: in vivo.

The structures appear in SMILES notation.

Consider `CC1(C)S[C@@H]2[C@H](NC(=O)[C@H](N)c3ccc(O)cc3)C(=O)N2[C@H]1C(=O)O` [amoxicillin], for which the elimination half-life result is recorded as “about 1.3 hours”.
